In patent US4016158A, “Cephalosporin derivatives” (Roussel-UCLAF, priority 1971, dated 1977):
Like-named read-outs stand apart in the source and are kept apart here.

What was measured:
Type in all cases: cell-based
Escher. Coli UC 1261 = test: MIC, diffusion method in gelose medium at pH 7 (Table I); details: Escherichia coli, UC1261; Escher. Coli UC 1261, pH 7; read-out: minimum concentration of inhibition
Experimental: (§1) The antibiotic activity was determined by the diffusion method in a gelose medium at a pH of 7. The following Table expresses the minimum concentration of inhibition in mcg/ml (CMl) for the products against different microbial strains.

Pseudomonas = test: as above; details: read-out: minimum concentration of inhibition
Experimental: as §1

Bac. Subt. = test: as above; details: Bac. Subt., pH 7; read-out: minimum concentration of inhibition
Experimental: as §1

Strept. Fecalis 5432 = test: as above; details: Strept. Fecalis 5432, pH 7; read-out: minimum concentration of inhibition
Experimental: as §1

[1] = tested on: Strept. hemoly. Todd Hewitt; test: as above; details: Strept. hemoly. Todd Hewitt, pH 7; read-out: minimum concentration of inhibition
Experimental: as §1

[2] = tested on: Staphylococcus aureus 9729; test: MIC (Table II); details: Staphylococcus aureus, 9729, read-out: minimum inhibition concentration
Experimental: as §1
(§2) Using the same procedure as in Table I, the minimum inhibition concentration in mcg/ml was determined against different microbial strains with L(-) cis 7-[D(-)-α-aminophenylacetamido]-3-isopropyl-3-cepheme-4-carboxylic acid (product A) of Example 9.

Escherichia coli 070 = test: MIC (Table II); details: read-out: minimum inhibition concentration
Experimental: as §1, §2

[3] = tested on: Staphylococcus aureus 9373; test: MIC (Table II); details: Staphylococcus aureus, 9373, read-out: minimum inhibition concentration
Experimental: as §1, §2

Proteus mirabilis 6194 = test: MIC (Table II); details: read-out: minimum inhibition concentration
Experimental: as §1, §2

[4] = tested on: Staphylococcus aureus A8P; test: MIC (Table II); details: read-out: minimum inhibition concentration
Experimental: as §1, §2

Shigella sonnei = test: MIC (Table II); details: read-out: minimum inhibition concentration
Experimental: as §1, §2

[5] = tested on: Staphylococcus aureus Frottis nasal; test: MIC (Table II); details: read-out: minimum inhibition concentration
Experimental: as §1, §2

[6] = tested on: Staphylococcus aureus 889; test: MIC (Table II); details: Staphylococcus aureus, 889, read-out: minimum inhibition concentration
Experimental: as §1, §2

[7] = tested on: Klebsiella pneumoniae 52145; test: MIC (Table II); details: read-out: minimum inhibition concentration
Experimental: as §1, §2

[8] = tested on: Staphylococcus aureus 1098; test: MIC (Table II); details: read-out: minimum inhibition concentration
Experimental: as §1, §2

[9] = tested on: Staphylococcus aureus 9561; test: MIC (Table II); details: read-out: minimum inhibition concentration
Experimental: as §1, §2

Shigella flexneri = test: MIC (Table II); details: read-out: minimum inhibition concentration
Experimental: as §1, §2

[10] = tested on: Staphylococcus aureus 5880; test: MIC (Table II); details: read-out: minimum inhibition concentration
Experimental: as §1, §2

Escherichia coli 5524 = test: MIC (Table II); details: read-out: minimum inhibition concentration
Experimental: as §1, §2

Proteus mirabilis 8065 = test: MIC (Table II); details: read-out: minimum inhibition concentration
Experimental: as §1, §2

Escherichia coli 51 = test: MIC (Table II); details: read-out: minimum inhibition concentration
Experimental: as §1, §2

Escherichia coli 4965 = test: MIC (Table II); details: read-out: minimum inhibition concentration
Experimental: as §1, §2

Escherichia coli 5369 = test: MIC (Table II); details: read-out: minimum inhibition concentration
Experimental: as §1, §2

[11] = tested on: Streptococcus hemolyticus 561; test: MIC (Table II); details: Streptococcus pyogenes, read-out: minimum inhibition concentration
Experimental: as §1, §2

Escherichia coli 152 = test: MIC (Table II); details: read-out: minimum inhibition concentration
Experimental: as §1, §2

[12] = tested on: Staphylococcus aureus 8514; test: MIC (Table II); details: read-out: minimum inhibition concentration
Experimental: as §1, §2

[13] = tested on: Staphylococcus aureus 980; test: MIC (Table II); details: 24h, read-out: minimum inhibition concentration
Experimental: as §1, §2

[14] = tested on: Diplococcus pneumoniae 735; test: MIC (Table II); details: Streptococcus pneumoniae, read-out: minimum inhibition concentration
Experimental: as §1, §2

[15] = tested on: Staphylococcus aureus 9482; test: MIC (Table II); details: Staphylococcus aureus, 9482, read-out: minimum inhibition concentration
Experimental: as §1, §2

Proteus mirabilis 1668 = test: MIC (Table II); details: read-out: minimum inhibition concentration
Experimental: as §1, §2

Escherichia coli 9927 = test: MIC (Table II); details: read-out: minimum inhibition concentration
Experimental: as §1, §2

[16] = tested on: Salmonella typhimurium 420; test: MIC (Table II); details: Salmonella enterica, read-out: minimum inhibition concentration
Experimental: as §1, §2

Measured: MIC

CC(C)C1=C(C(=O)O)N2C(=O)[C@@H](NC(=O)[C@H](N)c3ccccc3)[C@H]2SC1 [Example 9, L (+) cis 7-[D (-)-α-aminophenylacetamido]-3-isopropyl-3-cepheme-4-carboxylic acid]
60 µg/mL: Proteus mirabilis 6194; 24h | [7]; 48h | Escherichia coli 5524; 24h | Escherichia coli 5524; 48h | Escherichia coli 5524; 72h | Proteus mirabilis 8065; 24h | [16]; 24h | [16]; 48h
40 µg/mL: Escherichia coli 070; 24h | Escherichia coli 070; 48h | Escherichia coli 070; 72h | Shigella flexneri; 48h | Shigella flexneri; 72h | Escherichia coli 4965; 48h | Escherichia coli 4965; 72h | Escherichia coli 5369; 48h | Escherichia coli 152; 72h
> 40 µg/mL: [11]; 48h | [13]
100 µg/mL: Escherichia coli 51; 24h | Escherichia coli 5369; 72h | Proteus mirabilis 1668; 24h | Escherichia coli 9927; 24h
5 µg/mL: [2]; 72h | [3]; 72h | [6]; 24h
0.2 µg/mL: Bac. Subt.
> 100 µg/mL: Pseudomonas | Proteus mirabilis 6194; 72h | [7]; 72h | Proteus mirabilis 8065; 48h | Escherichia coli 51; 48h | Proteus mirabilis 1668; 48h | Escherichia coli 9927; 48h | [16]; 72h
20 µg/mL: Strept. Fecalis 5432 | [6]; 72h | Shigella flexneri; 24h
80 µg/mL: Proteus mirabilis 6194; 48h
0.4 µg/mL: [8]; 24h | [14]; 24h
0.6 µg/mL: [11]; 24h
2 µg/mL: [2]; 24h | [2]; 48h | [5]; 24h | [10]; 24h | [12]; 48h | [12]; 72h | [15]; 48h | [15]; 72h
1 µg/mL: [3]; 24h | [4]; 24h | [8]; 48h | [9]; 24h | [12]; 24h | [14]; 48h | [14]; 72h | [15]; 24h
40 to 100 µg/mL: Escher. Coli UC 1261
30 µg/mL: Shigella sonnei; 24h | Shigella sonnei; 48h | Shigella sonnei; 72h | [7]; 24h | Escherichia coli 4965; 24h | Escherichia coli 5369; 24h | Escherichia coli 152; 24h | Escherichia coli 152; 48h
3 µg/mL: [3]; 48h | [4]; 48h | [5]; 48h | [8]; 72h | [9]; 48h | [10]; 48h
10 µg/mL: [1] | [4]; 72h | [5]; 72h | [6]; 48h | [9]; 72h | [10]; 72h
